Results reported in patent US12398097B2, “WDR5-MYC inhibitors” (Vanderbilt University, priority 2019, dated 2025).

Molecular target: WDR5 (Homo sapiens, UniProt P61964)
Experiment: Competition-based fluorescence polarization anisotropy assay
Details: binding to WDR5; displacement of FITC-labeled small molecule probe (analogous to Example J2 or HCH-25) or peptide probe FITC-AHx-SEEEIDVVSV; pH 6.0; Ki converted from IC50
Protocol: Compounds of the present invention were assessed for their ability to bind to WDr5 using a competition-based fluorescence polarization anisotropy assay, similar to the method previously described. […] Fluorescence polarization measurements were performed in 384-well plates (Greiner Bio One) using a Cytation 3 plate reader (BioTek). Fluorescein isothiocyanate (FITC)-labeled peptide probe ([…]) was purchased from GenScript USA Inc and used without further purification. […] The assay buffer contained 200 mM phosphate, 300 mM NaCl, and 0.5 mM TCEP and 0.1% Chaps at pH 6.0. […] This was converted into a binding dissociation constant (Ki value) according to the formula: […] Data shown in the table below represents a K; determined from this method for each Example, using either a fluorescently labeled small molecule probe analogous to Example J2 or Example HCH-25, or the peptide probe described above, in the assay.

In the case of `C[C@@H](Nc1ccc(Br)cc1S(=O)(=O)Nc1cc(C2CC2)cc(C(=O)O)c1O)C1CC1` [Example J77, (R)-3-((5-Bromo-2-((1-cyclopropylethyl)amino)phenyl)sulfonamido)-5-cyclopropyl-2-hydroxybenzoic acid], the Ki is reported as 2.87 µM.
Work on `COC[C@H]1CCCN1c1ccc(Br)cc1S(=O)(=O)Nc1cc(C2CC2)cc(C(=O)O)c1O` [Example J78, (R)-3-((5-Bromo-2-(2-(methoxymethyl)pyrrolidin-1-yl)phenyl)sulfonamido)-5-cyclopropyl-2-hydroxybenzoic acid] yielded a Ki of 3.99 µM.
With `O=C(O)c1cc(C2CC2)cc(NS(=O)(=O)c2cc(Br)ccc2NCC2CC2)c1O` [Example J79, 3-((5-Bromo-2-((cyclopropylmethyl)amino)phenyl)sulfonamido)-5-cyclopropyl-2-hydroxybenzoic acid] the Ki was 5.27 µM.
`NC(=O)c1cc(C2CC2)cc(NS(=O)(=O)c2cc(Br)ccc2O)c1O` [Example J80, 3-((5-Bromo-2-hydroxyphenyl)sulfonamido)-5-cyclopropyl-2-hydroxybenzamide] gave a Ki of 1.64 µM.
For `CNC(=O)c1cc(C2CC2)cc(NS(=O)(=O)c2cc(Br)ccc2O)c1O` [Example J81, 3-((5-Bromo-2-hydroxyphenyl)sulfonamido)-5-cyclopropyl-2-hydroxy-N-methylbenzamide], the Ki was 0.75 µM.
`CN(CCO)C(=O)c1cc(C2CC2)cc(NS(=O)(=O)c2cc(Br)ccc2O)c1O` [Example J82, 3-((5-Bromo-2-hydroxyphenyl)sulfonamido)-5-cyclopropyl-2-hydroxy-N-(2-hydroxyethyl)-N-methylbenzamide] was tested, and the Ki was 3.76 µM.
Work on `COCCN(C)C(=O)c1cc(C2CC2)cc(NS(=O)(=O)c2cc(Br)ccc2O)c1O` [Example J83, 3-((5-Bromo-2-hydroxyphenyl)sulfonamido)-5-cyclopropyl-2-hydroxy-N-(2-methoxyethyl)-N-methylbenzamide] yielded a Ki of 6.38 µM.
For `O=C(NCCN1CCOCC1)c1cc(C2CC2)cc(NS(=O)(=O)c2cc(Br)ccc2O)c1O` [Example J84, 3-((5-Bromo-2-hydroxyphenyl)sulfonamido)-5-cyclopropyl-2-hydroxy-N-(2-morpholinoethyl)benzamide], the Ki was 1.07 µM.
`O=C(c1cc(C2CC2)cc(NS(=O)(=O)c2cc(Br)ccc2O)c1O)N1CCOCC1` [Example J85, 5-Bromo-N-(5-cyclopropyl-2-hydroxy-3-(morpholine-4-carbonyl)phenyl)-2-hydroxybenzenesulfonamide] showed a Ki of 1.44 µM.
`COCCNC(=O)c1cc(C2CC2)cc(NS(=O)(=O)c2cc(Br)ccc2O)c1O` [Example J86, 3-((5-Bromo-2-hydroxyphenyl)sulfonamido)-5-cyclopropyl-2-hydroxy-N-(2-methoxyethyl)benzamide] showed a Ki of 0.56 µM.
With `O=C(NCCO)c1cc(C2CC2)cc(NS(=O)(=O)c2cc(Br)ccc2O)c1O` [Example J87, 3-((5-Bromo-2-hydroxyphenyl)sulfonamido)-5-cyclopropyl-2-hydroxy-N-(2-hydroxyethyl)benzamide] the Ki was 0.59 µM.
`COCCCNC(=O)c1cc(C2CC2)cc(NS(=O)(=O)c2cc(Br)ccc2O)c1O` [Example J88, 3-((5-Bromo-2-hydroxyphenyl)sulfonamido)-5-cyclopropyl-2-hydroxy-N-(3-methoxypropyl)benzamide] gave a Ki of 0.6 µM.
Work on `CN(C)CCNC(=O)c1cc(C2CC2)cc(NS(=O)(=O)c2cc(Br)ccc2O)c1O` [Example J89] yielded a Ki of 1.31 µM.
`O=C(NC1CCOC1)c1cc(C2CC2)cc(NS(=O)(=O)c2cc(Br)ccc2O)c1O` (stereo not shown) [Example J90, 3-((5-Bromo-2-hydroxyphenyl)sulfonamido)-5-cyclopropyl-2-hydroxy-N-(tetrahydrofuran-3-yl)benzamide] was tested, and the Ki was 0.74 µM.
With `O=C(NCCCO)c1cc(C2CC2)cc(NS(=O)(=O)c2cc(Br)ccc2O)c1O` [Example J91, 3-((5-Bromo-2-hydroxyphenyl)sulfonamido)-5-cyclopropyl-2-hydroxy-N-(3-hydroxypropyl)benzamide] the Ki was 0.94 µM.
With `CN1CCN(C(=O)c2cc(C3CC3)cc(NS(=O)(=O)c3cc(Br)ccc3O)c2O)CC1` [Example J92, 5-Bromo-N-(5-cyclopropyl-2-hydroxy-3-(4-methylpiperazine-1-carbonyl)phenyl)-2-hydroxybenzenesulfonamide] the Ki was 4.44 µM.
With `O=C(NC1COC1)c1cc(C2CC2)cc(NS(=O)(=O)c2cc(Br)ccc2O)c1O` [Example J93, 3-((5-Bromo-2-hydroxyphenyl)sulfonamido)-5-cyclopropyl-2-hydroxy-N-(oxetan-3-yl)benzamide] the Ki was 0.54 µM.
With `NC(=O)c1cc(C2CC2)cc(NS(=O)(=O)c2cc(Br)cc(Cl)c2O)c1O` [Example J94, 3-((5-Bromo-3-chloro-2-hydroxyphenyl)sulfonamido)-5-cyclopropyl-2-hydroxybenzamide] the Ki was 0.4 µM.
In the case of `CNC(=O)c1cc(C2CC2)cc(NS(=O)(=O)c2cc(Br)cc(Cl)c2O)c1O` [Example J95, 3-((5-Bromo-3-chloro-2-hydroxyphenyl)sulfonamido)-5-cyclopropyl-2-hydroxy-N-methylbenzamide], the Ki is reported as 0.39 µM.
`COCCNC(=O)c1cc(C2CC2)cc(NS(=O)(=O)c2cc(Br)cc(Cl)c2O)c1O` [Example J96, 3-((5-Bromo-3-chloro-2-hydroxyphenyl)sulfonamido)-5-cyclopropyl-2-hydroxy-N-(2-methoxyethyl)benzamide] was tested, and the Ki was 0.61 µM.
Work on `O=C(N[C@H]1CCOC1)c1cc(C2CC2)cc(NS(=O)(=O)c2cc(Br)cc(Cl)c2O)c1O` [Example J97, (S)-3-((5-Bromo-3-chloro-2-hydroxyphenyl)sulfonamido)-5-cyclopropyl-2-hydroxy-N-(tetrahydrofuran-3-yl)benzamide] yielded a Ki of 0.14 µM.
Work on `CNC(=O)c1cc(C2CC2)cc(NS(=O)(=O)c2cc(Br)cc(F)c2O)c1O` [Example J98, 3-((5-Bromo-3-fluoro-2-hydroxyphenyl)sulfonamido)-5-cyclopropyl-2-hydroxy-N-methylbenzamide] yielded a Ki of 2.32 µM.
`COCCNC(=O)c1cc(C2CC2)cc(NS(=O)(=O)c2cc(Br)cc(F)c2O)c1O` [Example J99, 3-((5-Bromo-3-fluoro-2-hydroxyphenyl)sulfonamido)-5-cyclopropyl-2-hydroxy-N-(2-methoxyethyl)benzamide] showed a Ki of 3.72 µM.
`NC(=O)c1cc(C2CC2)cc(NS(=O)(=O)c2cc(Br)cc([N+](=O)[O-])c2O)c1O` [Example J104, 3-((5-Bromo-2-hydroxy-3-nitrophenyl)sulfonamido)-5-cyclopropyl-2-hydroxybenzamide] showed a Ki of 0.61 µM.
For `COc1cc(Cl)c(Br)cc1S(=O)(=O)Nc1cc(C2CC2)cc(C(N)=O)c1O` [Example J105, 3-((5-Bromo-4-chloro-2-methoxyphenyl)sulfonamido)-5-cyclopropyl-2-hydroxybenzamide], the Ki was 13 µM.
`COc1cc(F)c(Br)cc1S(=O)(=O)Nc1cc(C2CC2)cc(C(N)=O)c1O` [Example J106, 3-((5-Bromo-4-fluoro-2-methoxyphenyl)sulfonamido)-5-cyclopropyl-2-hydroxybenzamide] was tested, and the Ki was 1.53 µM.
In the case of `O=C(O)c1cc(F)cc(NS(=O)(=O)c2cc(Br)ccc2O)c1O` [Example J107, 3-((5-Bromo-2-hydroxyphenyl)sulfonamido)-5-fluoro-2-hydroxybenzoic acid], the Ki is reported as 1.48 µM.
Molecule `NC(=O)c1cc(F)cc(NS(=O)(=O)c2cc(Br)ccc2O)c1O` [Example J108, 3-((5-Bromo-2-hydroxyphenyl)sulfonamido)-5-fluoro-2-hydroxybenzamide] has a Ki of 2.24 µM.
Molecule `CNC(=O)c1cc(F)cc(NS(=O)(=O)c2cc(Br)ccc2O)c1O` [Example J109, 3-((5-Bromo-2-hydroxyphenyl)sulfonamido)-5-fluoro-2-hydroxy-N-methylbenzamide] has a Ki of 3.47 µM.
For `COCCNC(=O)c1cc(F)cc(NS(=O)(=O)c2cc(Br)ccc2O)c1O` [Example J110, 3-((5-Bromo-2-hydroxyphenyl)sulfonamido)-5-fluoro-2-hydroxy-N-(2-methoxyethyl)benzamide], the Ki was 2.26 µM.
Work on `O=C(NCCO)c1cc(F)cc(NS(=O)(=O)c2cc(Br)ccc2O)c1O` [Example J111, 3-((5-Bromo-2-hydroxyphenyl)sulfonamido)-5-fluoro-2-hydroxy-N-(2-hydroxyethyl)benzamide] yielded a Ki of 2.93 µM.
`O=C(O)c1cc(C2CC2)cc(NS(=O)(=O)c2cc(Br)ccc2O)c1F` [Example J112, 3-((5-Bromo-2-hydroxyphenyl)sulfonamido)-5-cyclopropyl-2-fluorobenzoic acid] gave a Ki of 0.78 µM.
`O=C(O)c1cc(C2CC2)cc(NS(=O)(=O)c2cc(Br)cc3cccnc23)c1F` [Example J113, 3-((6-Bromoquinoline)-8-sulfonamido)-5-cyclopropyl-2-fluorobenzoic acid] was tested, and the Ki was 1.71 µM.
For `O=C(O)c1cc(NS(=O)(=O)c2cc(Br)ccc2O)cc(C2CC2)c1F` [Example J114, 5-((5-Bromo-2-hydroxyphenyl)sulfonamido)-3-cyclopropyl-2-fluorobenzoic acid], the Ki was 0.52 µM.
With `O=C(O)c1c(O)c(NS(=O)(=O)c2cc(Br)ccc2O)cc(C2CC2)c1F` [Example J117, 3-((5-Bromo-2-hydroxyphenyl)sulfonamido)-5-cyclopropyl-6-fluoro-2-hydroxybenzoic acid] the Ki was 0.03 µM.
`O=C(O)c1c(O)c(NS(=O)(=O)c2cc(Br)cc(Cl)c2O)cc(C2CC2)c1F` [Example J118, 3-((5-Bromo-3-chloro-2-hydroxyphenyl)sulfonamido)-5-cyclopropyl-6-fluoro-2-hydroxybenzoic acid] gave a Ki of 0.35 µM.
For `O=C(O)c1c(O)c(NS(=O)(=O)c2cc(Br)cc(F)c2O)cc(C2CC2)c1F` [Example J119, 3-((5-Bromo-3-fluoro-2-hydroxyphenyl)sulfonamido)-5-cyclopropyl-6-fluoro-2-hydroxybenzoic acid], the Ki was 0.13 µM.
